The source made the active and inactive calls. No cut-off for these calls is given here.
Assays:
[1] = Drug localization in human HCT-116 cells Mitochondria assessed as increase fluorescence at 30 uM incubated for 30 mins by mito-tracker probe based inverted fluorescent microscopic analysis; format: ADME; conditions: hct-116, 0.5 h
HCT-116 [2] = assay: Cytotoxicity against human HCT-116 cells assessed as cell viability at 320 uM incubated for 24 hrs by CCK-8 assay; format: toxicity, cell-based; conditions: hct-116, 24 h
[3] = Drug localization in human HCT-116 cells Endoplasmic reticulum assessed as increase fluorescence at 30 uM incubated for 30 mins by ER-tracker red probe based inverted fluorescent microscopic analysis; format: ADME, subcellular; conditions: hct-116, 0.5 h
[4] = Drug localization in human HCT-116 cells Lysosome assessed as increase fluorescence at 30 uM incubated for 30 mins by lyso-tracker probe based inverted fluorescent microscopic analysis; format: ADME, subcellular; conditions: hct-116, 0.5 h
[5] = Photophysical property of the compound assessed as maximum fluorescent emission peak at 0.03125 to 4 uM by fluorescence spectrophotometric analysis; format: physicochemical; conditions: dose 0.03125-4 µM
HCT-116 [6] = assay: Cytotoxicity against human HCT-116 cells assessed as cell viability upto 80 uM incubated for 24 hrs by CCK-8 assay; format: toxicity, cell-based; conditions: hct-116, 24 h
HCT-116 [7] = assay: Effect on TGR5 protein level in human HCT-116 cells by Western blot analysis; format: functional, cell-based
[8] = Antiproliferative activity against dog MDCK cells assessed as inhibition of cell proliferation incubated for 24 hrs by CCK-8 assay; format: toxicity, cell-based, Canis lupus familiaris
HCT-116 [9] = assay: Antiproliferative activity against human HCT-116 cells assessed as inhibition of cell proliferation incubated for 24 hrs by CCK-8 assay; format: functional, cell-based; conditions: HCT-116, 24 h
MDCK = assay: Effect on TGR5 protein level in dog MDCK cells by Western blot analysis; format: functional, cell-based; conditions: Canis lupus familiaris
HepG2 [10] = assay: Antiproliferative activity against human HepG2 cells assessed as inhibition of cell proliferation incubated for 24 hrs by CCK-8 assay; format: functional, cell-based; conditions: HepG2, 24 h
HepG2 [11] = assay: Effect on TGR5 protein level in human HepG2 cells by Western blot analysis; format: functional, cell-based

For `C=C(C(NCCOC(=O)C(C)c1ccc(CC(C)C)cc1)c1ccc(C(=O)OC)cc1)S(=O)(=O)c1cccc2c(N(C)C)cccc12` (configuration not stated), the Drug uptake [1] was “Not_active”, the Activity (HCT-116 [2]) was “Non-toxic” and the Drug uptake [3] was “Active”. For the same compound, the Drug uptake [4] was “Not_active” and the Activity [5] was “Active”.

With `C=C(C(NCCNC(=O)C(C)c1ccc(CC(C)C)cc1)c1ccc(C(=O)OC)cc1)S(=O)(=O)c1cccc2c(N(C)C)cccc12` (configuration not stated) the Activity (HCT-116 [6]) was “Toxic”.

With `C=C(C(NCCNC(=O)CC[C@@H](C)[C@H]1CC[C@H]2[C@@H]3CC[C@@H]4C[C@H](O)CC[C@]4(C)[C@H]3CC[C@]12C)c1ccc(C(=O)OCCOCCOCCOC(=O)O[C@H]2c3cc4c(cc3[C@@H](c3cc(OC)c(OC)c(OC)c3)[C@H]3C(=O)OC[C@@H]32)OCO4)cc1)S(=O)(=O)c1cccc2c(N(C)C)cccc12` (some centres not stated) the Activity (HCT-116 [7]) was “Active”, the IC50 at 24 h [8] was 14.6 µM and the IC50 (HCT-116 [9]) was 5.5 µM. For the same compound, the Activity (MDCK) was “Active”, the IC50 (HepG2 [10]) was 2.1 µM and the Activity (HepG2 [11]) was “Active”.

Reference: ChEMBL document CHEMBL6078654, “Modular Assembly of Heterotrifunctional Molecules Enabled by Iodosulfonylation of Allenes and Subsequent Amination” (J Med Chem, 2024)
